What all share (assay): Test A pre/postemergence
Common to all, as to assay type: in vivo

The subject of experiment [1] is barnyardgrass (Echinochloa crus-galli). How it is done:
(§1) Seeds of barnyardgrass (Echinochloa crus-galli), crabgrass (Digitaria sanguinalis), giant foxtail (Setaria faberi), morningglory (Ipomoea spp.), redroot pigweed (Amaranthus retroflexus) and velvetleaf (Abutilon theophrasti) were planted into a blend of loam soil and sand and treated preemergence with a directed soil spray using test chemicals formulated in a non-phytotoxic solvent mixture which included a surfactant. At the same time these species were also treated with postemergence applications of test chemicals formulated in the same manner.
(§2) Plants ranged in height from 2 to 10 cm and were in the 1- to 2-leaf stage for the postemergence treatment. Treated plants and untreated controls were maintained in a greenhouse for approximately ten days, after which time all treated plants were compared to untreated controls and visually evaluated for injury. Plant response ratings, summarized in Table A, are based on a 0 to 100 scale where 0 is no effect and 100 is complete control. A dash (-) response means no test results.

Experiment [2] has as its system crabgrass (Digitaria sanguinalis). How it is done: as §1, §2
The subject of experiment [3] is giant foxtail (Setaria faberi). How it is done: as §1, §2
In experiment [4] the test system is morningglory (Ipomoea spp.). The protocol: as §1, §2
For experiment [5], the system named is redroot pigweed (Amaranthus retroflexus). How it is done:
as §1, §2

The test system of experiment [6] is velvetleaf (Abutilon theophrasti). How it is done: as §1, §2
Setting [7] is: Postemergence, 125 g ai/ha, 0 to 100 scale (0 no effect, 100 complete control).
[8] abbreviates: Postemergence, 500 g ai/ha, 0 to 100 scale (0 no effect, 100 complete control).
Where [9] appears, read: Preemergence, 125 g ai/ha, 0 to 100 scale where 0 is no effect and 100 is complete control, approximately ten days.
The mark [10] stands for this setting: Preemergence, 500 g ai/ha, 0 to 100 scale where 0 is no effect and 100 is complete control, approximately ten days.

Structures are written as SMILES.

Turning to `Nc1nc(C2CC2)nc(C(=O)OCCCOC(=O)c2nc(C3CC3)nc(N)c2Cl)c1Cl` [Compound 142], the “Plant response rating, Barnyardgrass” value in experiment [1] (setting [7]) came out at 45; in experiment [1] (setting [8]) it was 75; in experiment [1] (setting [9]), 50; in experiment [1] (setting [10]) it was 75. Further, the “Plant response rating, Crabgrass” value came out at 15 in experiment [2] (setting [7]), 25 in experiment [2] (setting [8]), 45 in experiment [2] (setting [9]) and 85 in experiment [2] (setting [10]). For the same molecule, the “Plant response rating, Foxtail, Giant” value worked out at 30 in experiment [3] (setting [7]), 45 in experiment [3] (setting [8]), 25 in experiment [3] (setting [9]) and 65 in experiment [3] (setting [10]). Moreover, the “Plant response rating, Morningglory” value amounted to 90 in experiment [4] (setting [7]), 90 in experiment [4] (setting [8]), 85 in experiment [4] (setting [9]) and 95 in experiment [4] (setting [10]). The “Plant response rating, Pigweed” value in experiment [5] (setting [7]) came out at 85; in experiment [5] (setting [8]) it was 90; in experiment [5] (setting [9]), 70; in experiment [5] (setting [10]) it was 90. The “Plant response rating, Velvetleaf” value in experiment [6] (setting [7]) is recorded as 80; in experiment [6] (setting [8]), 90; in experiment [6] (setting [9]), 85; in experiment [6] (setting [10]) it was 85.

Consider `CCOC(=O)c1nc(-c2cc(Br)cc(OC)c2)nc(N)c1Cl` [Compound 101], for which the “Plant response rating, Barnyardgrass” value in experiment [1] (setting [7]), in experiment [1] (setting [8]), in experiment [1] (setting [9]) and in experiment [1] (setting [10]) was 0 throughout. In addition, the “Plant response rating, Crabgrass” value in experiment [2] (setting [7]), in experiment [2] (setting [8]), in experiment [2] (setting [9]) and in experiment [2] (setting [10]) was 0 throughout. The “Plant response rating, Foxtail, Giant” value in experiment [3] (setting [7]), in experiment [3] (setting [8]), in experiment [3] (setting [9]) and in experiment [3] (setting [10]) was 0 throughout. Besides, the “Plant response rating, Morningglory” value in experiment [4] (setting [7]), in experiment [4] (setting [8]), in experiment [4] (setting [9]) and in experiment [4] (setting [10]) was 0 each time. Also, the “Plant response rating, Pigweed” value in experiment [5] (setting [7]) was 0; in experiment [5] (setting [8]) it was 5; in experiment [5] (setting [9]) it was 0; in experiment [5] (setting [10]), 0. For the same molecule, the “Plant response rating, Velvetleaf” value in experiment [6] (setting [7]) stood at 0; in experiment [6] (setting [8]) it was 15; in experiment [6] (setting [9]), 0; in experiment [6] (setting [10]) it was 0.

Take `Nc1nc(C2CC2)nc(C(=O)OCC2COC(=O)O2)c1Cl` (stereo not drawn) [Compound 149]: the “Plant response rating, Barnyardgrass” value in experiment [1] (setting [7]) is given as 65; in experiment [1] (setting [8]), 90; in experiment [1] (setting [9]), 70; in experiment [1] (setting [10]) it was 85. The “Plant response rating, Crabgrass” value is 25 in experiment [2] (setting [7]), 75 in experiment [2] (setting [8]), 20 in experiment [2] (setting [9]) and 75 in experiment [2] (setting [10]). For the same molecule, the “Plant response rating, Foxtail, Giant” value in experiment [3] (setting [7]) came out at 60; in experiment [3] (setting [8]), 80; in experiment [3] (setting [9]), 35; in experiment [3] (setting [10]), 90. Moreover, the “Plant response rating, Morningglory” value in experiment [4] (setting [7]) is 80; in experiment [4] (setting [8]) it was 95; in experiment [4] (setting [9]), 85; in experiment [4] (setting [10]), 100. Besides, the “Plant response rating, Pigweed” value in experiment [5] (setting [7]) came to 75; in experiment [5] (setting [8]) it was 90; in experiment [5] (setting [9]) it was 70; in experiment [5] (setting [10]), 90. In addition, the “Plant response rating, Velvetleaf” value in experiment [6] (setting [7]) came to 85; in experiment [6] (setting [8]), 100; in experiment [6] (setting [9]), 70; in experiment [6] (setting [10]), 85.

As to `COC(=O)COc1nc(-c2ccc(Cl)cc2)nc(N)c1Cl` [Compound 119], the “Plant response rating, Barnyardgrass” value in experiment [1] (setting [7]) worked out at 0; in experiment [1] (setting [8]), 5; in experiment [1] (setting [9]), 0; in experiment [1] (setting [10]) it was 10. Besides, the “Plant response rating, Crabgrass” value in experiment [2] (setting [7]), in experiment [2] (setting [8]), in experiment [2] (setting [9]) and in experiment [2] (setting [10]) was 0 throughout. Moreover, the “Plant response rating, Foxtail, Giant” value in experiment [3] (setting [7]), in experiment [3] (setting [8]), in experiment [3] (setting [9]) and in experiment [3] (setting [10]) was 0 throughout. Also, the “Plant response rating, Morningglory” value in experiment [4] (setting [7]) is 40; in experiment [4] (setting [8]) it was 35; in experiment [4] (setting [9]) it was 0; in experiment [4] (setting [10]) it was 0. In addition, the “Plant response rating, Pigweed” value amounted to 25 in experiment [5] (setting [7]), 45 in experiment [5] (setting [8]), 0 in experiment [5] (setting [9]) and 0 in experiment [5] (setting [10]). Further, the “Plant response rating, Velvetleaf” value is listed as 0 in experiment [6] (setting [7]), 10 in experiment [6] (setting [8]), 0 in experiment [6] (setting [9]) and 0 in experiment [6] (setting [10]).

With `COC(=O)c1nc(-c2ccc(C)c(F)c2)nc(N)c1Cl` [Compound 86], the “Plant response rating, Barnyardgrass” value in experiment [1] (setting [7]) came out at 10; in experiment [1] (setting [8]), 30; in experiment [1] (setting [9]) it was 0; in experiment [1] (setting [10]), 0. Besides, the “Plant response rating, Crabgrass” value in experiment [2] (setting [7]), in experiment [2] (setting [8]), in experiment [2] (setting [9]) and in experiment [2] (setting [10]) was 0 in each case. Further, the “Plant response rating, Foxtail, Giant” value in experiment [3] (setting [7]), in experiment [3] (setting [8]), in experiment [3] (setting [9]) and in experiment [3] (setting [10]) was 0 each time. For the same molecule, the “Plant response rating, Morningglory” value in experiment [4] (setting [7]) is 0; in experiment [4] (setting [8]) it was 20; in experiment [4] (setting [9]), 0; in experiment [4] (setting [10]), 0. In addition, the “Plant response rating, Pigweed” value in experiment [5] (setting [7]) was 20; in experiment [5] (setting [8]), 50; in experiment [5] (setting [9]) it was 0; in experiment [5] (setting [10]) it was 5. In addition, the “Plant response rating, Velvetleaf” value in experiment [6] (setting [7]) was 70; in experiment [6] (setting [8]), 85; in experiment [6] (setting [9]), 0; in experiment [6] (setting [10]), 10.

The record behind these values is US8802597B2, “Herbicidal pyrimidines” (E I du Pont de Nemours and Company, priority 2003, dated 2014).
